Measured values: ChEMBL document CHEMBL1124186, “Synthesis and evaluation of tylosin-related macrolides modified at the aldehyde function: a new series of orally effective antibiotics” (1988)
≈ marks a conversion by molar mass, not a printed value.

What was measured:
Staphylococcus aureus = assay: In vitro antimicrobial activity against Staphylococcus aureus X1; format: functional
Streptococcus pyogenes = assay: In vitro antimicrobial activity against Streptococcus pyogenes C203; format: functional
Enterococcus faecium = assay: In vitro antimicrobial activity against Streptococcus faecium X66; format: functional, streptococcus fae-cium
Haemophilus influenzae = assay: In vitro antimicrobial activity against Haemophilus influenzae.; format: functional
Streptococcus pneumoniae = assay: In vitro antimicrobial activity against Streptococcus pneumoniae; format: functional
[1] = tested on: Staphylococcus epidermidis; assay: In vitro antimicrobial activity against Staphylococcus epidermidis EPI1; format: functional

Compound | MIC (Staphylococcus aureus) [mg/L] | MIC (Streptococcus pyogenes) [mg/L] | MIC (Enterococcus faecium) [mg/L] | MIC (Haemophilus influenzae) [mg/L] | MIC (Streptococcus pneumoniae) [mg/L] | MIC [1] [mg/L]
CC[C@H]1OC(=O)C[C@@H](O)[C@H](C)[C@@H](O[C@@H]2O[C@H](C)[C@@H](O[C@H]3C[C@@](C)(O)[C@@H](O)[C@H](C)O3)[C@H](N(C)C)[C@H]2O)[C@@H](CCOc2ccc(C(=O)c3ccccc3)cc2)C[C@@H](C)C(=O)/C=C/C(C)=C/[C@@H]1CO[C@@H]1O[C@H](C)[C@@H](O)[C@@H](OC)[C@H]1OC | 1 (≈ 0.91 µM) | 2 (≈ 1.82 µM) | 4 (≈ 3.64 µM) | > 128 | 1 (≈ 0.91 µM) | 2 (≈ 1.82 µM)
CC[C@H]1OC(=O)C[C@@H](O)[C@H](C)[C@@H](O[C@@H]2O[C@H](C)[C@@H](O[C@H]3C[C@@](C)(O)[C@@H](O)[C@H](C)O3)[C@H](N(C)C)[C@H]2O)[C@@H](CCOc2cc(Cl)cc(Cl)c2)C[C@@H](C)C(=O)/C=C/C(C)=C/[C@@H]1CO[C@@H]1O[C@H](C)[C@@H](O)[C@@H](OC)[C@H]1OC | 1 (≈ 0.941 µM) | 1 (≈ 0.941 µM) | > 128 | > 128 | 16 (≈ 15.1 µM) | 2 (≈ 1.88 µM)
CCOC(=O)NN(CC[C@H]1C[C@@H](C)C(=O)/C=C/C(C)=C/[C@H](CO[C@@H]2O[C@H](C)[C@@H](O)[C@@H](OC)[C@H]2OC)[C@@H](CC)OC(=O)C[C@@H](O)[C@H](C)[C@H]1O[C@@H]1O[C@H](C)[C@@H](O[C@H]2C[C@@](C)(O)[C@@H](O)[C@H](C)O2)[C@H](N(C)C)[C@H]1O)C(=O)OCC | 2 (≈ 1.86 µM) | 8 (≈ 7.43 µM) | > 128 | > 128 | 8 (≈ 7.43 µM) | 4 (≈ 3.72 µM)
CC[C@H]1OC(=O)C[C@@H](O)[C@H](C)[C@@H](O[C@@H]2O[C@H](C)[C@@H](O)[C@H](N(C)C)[C@H]2O)[C@@H](CCOc2ccc(C=O)cc2)C[C@@H](C)C(=O)/C=C/C(C)=C/[C@@H]1CO[C@@H]1O[C@H](C)[C@@H](O)[C@@H](OC)[C@H]1OC | 0.25 (≈ 0.285 µM) | 1 (≈ 1.14 µM) | 4 (≈ 4.56 µM) | 16 (≈ 18.2 µM) | 1 (≈ 1.14 µM) | 0.25 (≈ 0.285 µM)
CC[C@H]1OC(=O)C[C@@H](O)[C@H](C)[C@H]2OCC[C@H]2C[C@@H](C)C(=O)/C=C/C(C)=C/[C@@H]1CO[C@@H]1O[C@H](C)[C@@H](O)[C@@H](OC)[C@H]1OC | > 128 | > 128 | > 128 | > 128 | > 128 | > 128
CC[C@H]1OC(=O)C[C@@H](O)[C@H](C)[C@@H](O[C@@H]2O[C@H](C)[C@@H](O[C@H]3C[C@@](C)(O)[C@@H](O)[C@H](C)O3)[C@H](N(C)C)[C@H]2O)[C@@H](CCNc2ccc(OC(C)=O)cc2)C[C@@H](C)C(=O)/C=C/C(C)=C/[C@@H]1CO[C@@H]1O[C@H](C)[C@@H](O)[C@@H](OC)[C@H]1OC | 1 (≈ 0.951 µM) | 2 (≈ 1.9 µM) | 64 (≈ 60.9 µM) | 128 (≈ 122 µM) | 1 (≈ 0.951 µM) | 0.5 (≈ 0.476 µM)
CC[C@H]1OC(=O)C[C@@H](O)[C@H](C)[C@@H](O[C@@H]2O[C@H](C)[C@@H](O)[C@H](N(C)C)[C@H]2O)[C@@H](CC=O)C[C@@H](C)C(=O)/C=C/C(C)=C/[C@@H]1C | 0.25 (≈ 0.43 µM) | 0.25 (≈ 0.43 µM) | 0.5 (≈ 0.859 µM) | 1 (≈ 1.72 µM) | 0.12 (≈ 0.206 µM) | 0.25 (≈ 0.43 µM)
CC[C@H]1OC(=O)C[C@@H](O)[C@H](C)[C@@H](O[C@@H]2O[C@H](C)[C@@H](O[C@H]3C[C@@](C)(O)[C@@H](O)[C@H](C)O3)[C@H](N(C)C)[C@H]2O)[C@@H](CCOc2ccc(OC)cc2)C[C@@H](C)C(=O)/C=C/C(C)=C/[C@@H]1CO[C@@H]1O[C@H](C)[C@@H](O)[C@@H](OC)[C@H]1OC | 0.5 (≈ 0.488 µM) | 1 (≈ 0.976 µM) | 128 (≈ 125 µM) | 128 (≈ 125 µM) | 8 (≈ 7.81 µM) | 2 (≈ 1.95 µM)
CC[C@H]1OC(=O)C[C@@H](O)[C@H](C)[C@@H](O[C@@H]2O[C@H](C)[C@@H](O[C@H]3C[C@@](C)(O)[C@@H](O)[C@H](C)O3)[C@H](N(C)C)[C@H]2O)[C@@H](CCOc2ccc(OC(C)=O)cc2)C[C@@H](C)C(=O)/C=C/C(C)=C/[C@@H]1CO[C@@H]1O[C@H](C)[C@@H](O)[C@@H](OC)[C@H]1OC | 0.5 (≈ 0.475 µM) | 0.5 (≈ 0.475 µM) | 8 (≈ 7.6 µM) | > 128 | 0.5 (≈ 0.475 µM) | 0.5 (≈ 0.475 µM)

Other lines, results leading:

MIC (Staphylococcus aureus) [mg/L] | MIC (Streptococcus pyogenes) [mg/L] | MIC (Enterococcus faecium) [mg/L] | MIC (Haemophilus influenzae) [mg/L] | MIC (Streptococcus pneumoniae) [mg/L] | MIC [1] [mg/L] | Compound
64 (≈ 73.3 µM) | 128 (≈ 147 µM) | > 128 | > 128 | 16 (≈ 18.3 µM) | 32 (≈ 36.7 µM) | CC[C@H]1OC(=O)C[C@@H](O)[C@H](C)[C@@H](O[C@@H]2O[C@H](C)[C@@H](O[C@H]3C[C@@](C)(O)[C@@H](O)[C@H](C)O3)[C@H](N(C)C)[C@H]2O)[C@@H](CCN2C(=O)c3ccccc3C2=O)C[C@@H](C)C(=O)/C=C/C(C)=C/[C@@H]1CO
4 (≈ 6.85 µM) | 16 (≈ 27.4 µM) | 32 (≈ 54.8 µM) | 32 (≈ 54.8 µM) | 16 (≈ 27.4 µM) | 16 (≈ 27.4 µM) | CC[C@H]1OC(=O)C[C@@H](O)[C@H](C)[C@@H](O[C@@H]2O[C@H](C)[C@@H](O)[C@H](N(C)C)[C@H]2O)[C@@H](CCO)C[C@@H](C)C(=O)/C=C/C(C)=C/[C@@H]1C
64 (≈ 87.9 µM) | 64 (≈ 87.9 µM) | 64 (≈ 87.9 µM) | > 128 | 64 (≈ 87.9 µM) | 32 (≈ 44 µM) | CC[C@H]1OC(=O)C[C@@H](O)[C@H](C)[C@@H](O[C@@H]2O[C@H](C)[C@@H](O[C@H]3C[C@@](C)(O)[C@@H](O)[C@H](C)O3)[C@H](N(C)C)[C@H]2O)[C@@H](CCO)C[C@@H](C)C(=O)/C=C/C(C)=C/[C@@H]1C
1 (≈ 0.978 µM) | 1 (≈ 0.978 µM) | 128 (≈ 125 µM) | > 128 | 16 (≈ 15.7 µM) | 1 (≈ 0.978 µM) | CC[C@H]1OC(=O)C[C@@H](O)[C@H](C)[C@@H](O[C@@H]2O[C@H](C)[C@@H](O[C@H]3C[C@@](C)(O)[C@@H](O)[C@H](C)O3)[C@H](N(C)C)[C@H]2O)[C@@H](CCOc2ccc(C=O)cc2)C[C@@H](C)C(=O)/C=C/C(C)=C/[C@@H]1CO[C@@H]1O[C@H](C)[C@@H](O)[C@@H](OC)[C@H]1OC
> 128 | 64 (≈ 86 µM) | > 128 | > 128 | 64 (≈ 86 µM) | 128 (≈ 172 µM) | CC[C@H]1OC(=O)C[C@@H](O)[C@H](C)[C@@H](O[C@@H]2O[C@H](C)[C@@H](O[C@H]3C[C@@](C)(O)[C@@H](O)[C@H](C)O3)[C@H](N(C)C)[C@H]2O)[C@@H](CCO)C[C@@H](C)C(=O)/C=C/C(C)=C/[C@@H]1CO
4 (≈ 3.74 µM) | 8 (≈ 7.49 µM) | > 128 | > 128 | 32 (≈ 30 µM) | 4 (≈ 3.74 µM) | CC[C@H]1OC(=O)C[C@@H](O)[C@H](C)[C@@H](O[C@@H]2O[C@H](C)[C@@H](O[C@H]3C[C@@](C)(O)[C@@H](O)[C@H](C)O3)[C@H](N(C)C)[C@H]2O)[C@@H](CCOC(C(F)(F)F)C(F)(F)F)C[C@@H](C)C(=O)/C=C/C(C)=C/[C@@H]1CO[C@@H]1O[C@H](C)[C@@H](O)[C@@H](OC)[C@H]1OC
4 (≈ 4.81 µM) | 2 (≈ 2.41 µM) | 8 (≈ 9.63 µM) | 64 (≈ 77 µM) | 1 (≈ 1.2 µM) | 4 (≈ 4.81 µM) | CC[C@H]1OC(=O)C[C@@H](O)[C@H](C)[C@@H](O[C@@H]2O[C@H](C)[C@@H](O[C@H]3C[C@@](C)(O)[C@@H](O)[C@H](C)O3)[C@H](N(C)C)[C@H]2O)[C@@H](CCNCCc2ccccc2)C[C@@H](C)C(=O)/C=C/C(C)=C/[C@@H]1C
1 (≈ 0.99 µM) | 4 (≈ 3.96 µM) | > 128 | > 128 | 64 (≈ 63.3 µM) | 2 (≈ 1.98 µM) | CC[C@H]1OC(=O)C[C@@H](O)[C@H](C)[C@@H](O[C@@H]2O[C@H](C)[C@@H](O[C@H]3C[C@@](C)(O)[C@@H](O)[C@H](C)O3)[C@H](N(C)C)[C@H]2O)[C@@H](CCSc2ccccc2)C[C@@H](C)C(=O)/C=C/C(C)=C/[C@@H]1CO[C@@H]1O[C@H](C)[C@@H](O)[C@@H](OC)[C@H]1OC
4 (≈ 4 µM) | 2 (≈ 2 µM) | 64 (≈ 64 µM) | > 128 | 16 (≈ 16 µM) | 8 (≈ 8.01 µM) | CC[C@H]1OC(=O)C[C@@H](O)[C@H](C)[C@@H](O[C@@H]2O[C@H](C)[C@@H](O[C@H]3C[C@@](C)(O)[C@@H](O)[C@H](C)O3)[C@H](N(C)C)[C@H]2O)[C@@H](CCN2CCCCCCC2)C[C@@H](C)C(=O)/C=C/C(C)=C/[C@@H]1CO[C@@H]1O[C@H](C)[C@@H](O)[C@@H](O)[C@H]1OC
64 (≈ 89.6 µM) | 64 (≈ 89.6 µM) | 128 (≈ 179 µM) | > 128 | 64 (≈ 89.6 µM) | 16 (≈ 22.4 µM) | CC[C@H]1OC(=O)C[C@@H](O)[C@H](C)[C@@H](O[C@@H]2O[C@H](C)[C@@H](O[C@H]3C[C@@](C)(O)[C@@H](O)[C@H](C)O3)[C@H](N(C)C)[C@H]2O)[C@@H](C)C[C@@H](C)C(=O)/C=C/C(C)=C/[C@@H]1CO
